Reference: patent US20240382494A1, “THERAPEUTIC COMPOUNDS” (priority 2023, published 2024)
Where two headings read alike, the source gives them in different places.

Legend:
[1] = Cytotoxicity assay in Vero E6 cells (neutral red uptake); format: cell-based; conditions: African green monkey
Procedure: Briefly, 80.000 cells/ml of the tested cell lines were dispensed into 96-well cell culture plates at 100 μl per well Twenty-four hours later, the growth medium was removed and washed with 150 μl of PBS buffer. Two hundred microliters of fresh serum-free medium containing serial diluted compounds was added to each well. After incubating for 2 days at 37° C., the medium was removed and replaced with 100 μl of DMEM medium containing neutral red (40 μg/ml) and incubated for 2 to 4 hours at 37° C. The amount of neutral red taken up was determined by measuring the absorbance at 540 nm using a Multiskan FC Microplate Photometer (Thermo Fisher Scientific) The CC50 values were calculated from best-fit dose-response curves with variable slope in Prism 8.

SARS-CoV-2 PLpro = SARS-CoV-2 PLpro (Severe acute respiratory syndrome coronavirus 2, UniProt P0DTD1); assay: FRET-based PLpro enzymatic assay; format: biochemical
Procedure: The SARS-CoV-2 PL^pro enzymatic assays were carried out as follows. The assay was assembled in 96-well plates with 100 μl of 200 nM PL^Pro protein in PL^Pro reaction buffer [50 mM Hepes (pH 7.5), 0.01% Triton X-100, and 5 mM DTT]. Then, 1 μl of testing compound at various concentrations was added to each well and incubated at 30° C. for 30 minutes. The enzymatic reaction was initiated by adding 1 μl of 1 mM FRET substrate (the final substrate concentration is 10 μM). The reaction was monitored in a Cytation 5 image reader with filters for excitation at 360/40 nm and emission at 460/40 nm at 30° C. for 1 hour. The initial velocity of the enzymatic reaction with and without testing compounds was calculated by linear regression for the first 15 minutes of the kinetic progress curve. The IC50 values were calculated by plotting the initial velocity against various concentrations of testing compounds with a dose-response function in Prism 8 software.

[2] = Vero E6 cells, 2 days at 37° C., neutral red uptake, read-out: Vero CC50
[3] = 200 nM PLpro, 10 μM FRET substrate, 30 min preincubation at 30° C., read-out: IC50

Compound | CC50 at 2 days [1, 2] [µM] | IC50 (SARS-CoV-2 PLpro; [3]) [µM] | CC50 at 2 days [1] [µM] | IC50 (SARS-CoV-2 PLpro) [µM]
Cc1ccc(OCCN(C)C)cc1C(=O)N[C@H](C)c1cc(-c2ccc(CN3CCOCC3)s2)nc2ccccc12 [Example 16, (R)-5-(2-(dimethylamino)ethoxy)-2-methyl-N-(1-(2-(5-(morpholinomethyl)thiophen-2-yl)quinolin-4-yl)ethyl)benzamide] | 30.6 ± 10.6 | < 0.5 | – | –
Cc1ccc(N2CC3CCC(C2)N3C)cc1C(=O)NC1(c2cc(-c3cnn(C)c3)nc3ccccc23)CC1 [Example 112, 2-methyl-N-(1-(2-(1-methyl-1H-pyrazol-4-yl)quinolin-4-yl)cyclopropyl)-5-(8-methyl-3,8-diazabicyclo[3.2.1]octan-3-yl)benzamide] | – | – | 53.8 ± 2.52 | < 0.5
Cc1ccc(N2CCN(C)CC2)cc1C(=O)N[C@H](C)c1cc(-c2ccn(C)n2)nc2ccccc12 [Example 97, (R)-2-methyl-N-(1-(2-(1-methyl-1H-pyrazol-3-yl)quinolin-4-yl)ethyl)-5-(4-methylpiperazin-1-yl)benzamide] | 30.7 ± 2.45 | < 0.5 | – | –
CCn1ccc(-c2cc([C@@H](C)NC(=O)c3cc(N4CC5CCC(C4)N5C)ccc3C)c3ccccc3n2)n1 [Example 106, N—((R)-1-(2-(1-ethyl-1H-pyrazol-3-yl)quinolin-4-yl)ethyl)-2-methyl-5-(8-methyl-3,8-diazabicyclo[3.2.1]octan-3-yl)benzamide] | – | – | 31.3 ± 7.45 | < 0.5
Cc1ccc(OCCN(C)C)cc1C(=O)N[C@H](C)c1cc(-c2ccnn2C)nc2ccccc12 [Example 13, (R)-5-(2-(dimethylamino)ethoxy)-2-methyl-N-(1-(2-(1-methyl-1H-pyrazol-5-yl)quinolin-4-yl)ethyl)benzamide] | 60 ± 8.43 | < 0.5 | – | –
Cc1ccc(N2C[C@H]3CN(C)C[C@H]3C2)cc1C(=O)N[C@H](C)c1cc(-c2ccn(C)n2)nc2ccccc12 [Example 103, 2-methyl-N—((R)-1-(2-(1-methyl-1H-pyrazol-3-yl)quinolin-4-yl)ethyl)-5-((3aR,6aS)-5-methylhexahydropyrrolo[3,4-c]pyrrol-2(1H)-yl)benzamide] | 27.3 ± 1.74 | < 0.5 | – | –
Cc1ccc(OCCN(C)C)cc1C(=O)N[C@H](C)c1cc(-c2cnn(CC(F)(F)F)c2)nc2ccccc12 [Example 10, (R)-5-(2-(dimethylamino)ethoxy)-2-methyl-N-(1-(2-(1-(2,2,2-trifluoroethyl)-1H-pyrazol-4-yl)quinolin-4-yl)ethyl)benzamide] | 60.8 ± 14.1 | < 0.5 | – | –
Cc1ccc(N(C)C2(C)CN(C)C2)cc1C(=O)N[C@H](C)c1cc(-c2cnn(C)c2)nc2ccccc12 [Example 93, (R)-5-((1,3-dimethylazetidin-3-yl)(methyl)amino)-2-methyl-N-(1-(2-(1-methyl-1H-pyrazol-4-yl)quinolin-4-yl)ethyl)benzamide] | 129 ± 2.32 | 1 to 5 | – | –
Cc1ccc(O[C@H]2CCN(C)C2)cc1C(=O)N[C@H](C)c1cc(-c2cnn(C)c2)nc2ccccc12 [Example 82, 2-methyl-N—((R)-1-(2-(1-methyl-1H-pyrazol-4-yl)quinolin-4-yl)ethyl)-5-(((S)-1-methyl-pyrrolidin-3-yl)oxy)benzamide] | 48.3 ± 2.9 | < 0.5 | – | –
Cc1ccc(OCCN(C)C)cc1C(=O)N[C@H](C)c1cc(-c2ccco2)nc2ccccc12 [Example 4, (R)5-(2-(dimethylamino)ethoxy)-N-(1-(2-(furan-2-yl)quinolin-4-yl)ethyl)-2-methylbenzamide] | 57.3 ± 20.4 | < 0.5 | – | –
Cc1ccc(OCCN(C)C)cc1C(=O)N[C@H](C)c1cc(-c2ccc(N3CCN(C)CC3)s2)nc2ccccc12 [Example 48, (R)-5-(2-(dimethylamino)ethoxy)-2-methyl-N-(1-(2-(5-(4-methylpiperazin-1-yl)thiophen-2-yl)quinolin-4-yl)ethyl)benzamide] | 15.4 ± 7.94 | < 0.5 | – | –
Cc1ccc(OCCN(C)C)cc1C(=O)N[C@H](C)c1cc(-c2cncnc2)nc2ccccc12 [Example 57, (R)-5-(2-(dimethylamino)ethoxy)-2-methyl-N-(1-(2-(pyrimidin-5-yl)quinolin-4-yl)ethyl)benzamide] | 74.6 ± 17.4 | 0.5 to 1 | – | –
Cc1ccc(OCCN(C)C)cc1C(=O)N[C@H](C)c1cc(-c2cnn(CC(=O)N3CCCC3)c2)nc2ccccc12 [Example 69, (R)-5-(2-(dimethylamino)ethoxy)-2-methyl-N-(1-(2-(1-(2-oxo-2-(pyrrolidin-1-yl)ethyl)-1H-pyrazol-4-yl)quinolin-4-yl)ethyl)benzamide] | 26.4 ± 4.5 | < 0.5 | – | –
Cc1ccc(N2CCC3(CC2)CN(C)C3)cc1C(=O)N[C@H](C)c1cc(-c2cnn(C)c2)nc2ccccc12 [Example 92, (R)-2-methyl-N-(1-(2-(1-methyl-1H-pyrazol-4-yl)quinolin-4-yl)ethyl)-5-(2-methyl-2,7-diazaspiro[3.5]nonan-7-yl)benzamide] | 76.5 ± 2.18 | 0.5 to 1 | – | –
Cc1ccc(OCCN(C)C)cc1C(=O)N[C@H](C)c1cc(-c2cnn(CCO)c2)nc2ccccc12 [Example 22, (R)-5-(2-(dimethylamino)ethoxy)-N-(1-(2-(1-(2-hydroxyethyl)-1H-pyrazol-4-yl)quinolin-4-yl)ethyl)-2-methylbenzamide] | 153 ± 43.9 | < 0.5 | – | –
Cc1ccc(OC[C@@H]2CCCN2C)cc1C(=O)N[C@H](C)c1cc(-c2ccn(C)n2)nc2ccccc12 [Example 98, 2-methyl-N—((R)-1-(2-(1-methyl-1H-pyrazol-3-yl)quinolin-4-yl)ethyl)-5-(((S)-1-methylpyrrolidin-2-yl)methoxy)benzamide] | 18.8 ± 1.49 | < 0.5 | – | –
Cc1ccc(OCCN(C)C)cc1C(=O)N[C@H](C)c1cc(-c2cnn(CC(=O)N(C)C)c2)nc2ccccc12 [Example 71, (R)—N-(1-(2-(1-(2-(dimethylamino)-2-oxoethyl)-1H-pyrazol-4-yl)quinolin-4-yl)ethyl)-5-(2-(dimethylamino)ethoxy)-2-methylbenzamide] | > 250 | < 0.5 | – | –
COc1cc(-c2cc([C@@H](C)NC(=O)c3cc(OCCN(C)C)ccc3C)c3ccccc3n2)cs1 [Example 68, (R)-5-(2-(dimethylamino)ethoxy)-N-(1-(2-(5-methoxythiophene-3-yl)quinolin-4-yl)ethyl)-2-methylbenzamide] | 13.9 ± 4.32 | < 0.5 | – | –
COCCn1cc(-c2cc([C@H](C)NC(=O)c3cc(OCCN(C)C)ccc3C)c3ccccc3n2)cn1 [Example 19, (S)-5-(2-(dimethylamino)ethoxy)-N-(1-(2-(1-(2-methoxyethyl)-1H-pyrazol-4-yl)quinolin-4-yl)ethyl)-2-methylbenzamide] | > 125 | 1 to 5 | – | –
Cc1ccc(OCCN(C)C)cc1C(=O)N[C@@H](C)c1cc(-c2cnn(C(F)F)c2)nc2ccccc12 [Example 18] | 47.1 ± 6.43 | 0.5 to 1 | – | –
Cc1ccc(OCCN(C)C)cc1C(=O)N[C@H](C)c1cc(-c2ccc(N)nc2)nc2ccccc12 [Example 9, (R)—N-(1-(2-(6-aminopyridin-3-yl)quinolin-4-yl)ethyl)-5-(2-(dimethylamino)ethoxy)-2-methylbenzamide] | 36.2 ± 6.83 | < 0.5 | – | –
Cc1ccc(OC[C@@H]2C[C@@H](F)CN2C)cc1C(=O)NC1(c2cc(-c3cnn(C)c3)nc3ccccc23)CC1 [Example 114, 5-(((2S,4R)-4-fluoro-1-methylpyrrolidin-2-yl)methoxy)-2-methyl-N-(1-(2-(1-methyl-1H-pyrazol-4-yl)quinolin-4-yl)cyclopropyl)benzamide] | 51.3 ± 6.52 | < 0.5 | – | –
Cc1ccc(OCCN(C)C)cc1C(=O)N[C@H](C)c1cc(Cl)nc2ccccc12 [Example 11, (R)—N-(1-(2-chloroquinolin-4-yl)ethyl)-5-(2-(dimethylamino)-ethoxy)-2-methylbenzamide] | 101 ± 11.3 | 0.5 to 1 | – | –
Cc1ccc(OCCN(C)C)cc1C(=O)N[C@H](C)c1cc(-c2cnc3[nH]ccc3c2)nc2ccccc12 [Example 60, (R)—N-(1-(2-(1H-pyrrolo[2,3-b]pyridin-5-yl)-quinolin-4-yl)ethyl)-5-(2-(dimethylamino)ethoxy)-2-methylbenzamide] | 25.8 ± 2.25 | > 5 | – | –
CCn1ccc(-c2cc([C@@H](C)NC(=O)c3cc(N4C[C@H]5C[C@@H]4CN5C)ccc3C)c3ccccc3n2)n1 [Example 107, N—((R)-1-(2-(1-ethyl-1H-pyrazol-3-yl)quinolin-4-yl)ethyl)-2-methyl-5-((1R,4R)-5-methyl-2,5-diazabicyclo[2.2.1]heptan-2-yl)benzamide] | 22.3 ± 1.39 | < 0.5 | – | –
Cc1ccc(OCCN(C)C)cc1C(=O)N[C@H](C)c1cc(-n2cncn2)nc2ccccc12 [Example 47, (R)—N-(1-(2-(1H-1,2,4-triazol-1-yl)quinoline 4-yl)ethyl)-5-(2-(dimethylamino)ethoxy)-2-methylbenzamide] | 17.5 ± 5.23 | 0.5 to 1 | – | –
